System: participants with SSc-RP
Assay: Scleroderma Health Assessment Questionnaire (SHAQ): disability indices and visual analog scales
Assay type: in vivo, human
Details: PP Population, Part A, sensitivity analysis
Description: The standard, validated, patient reported outcome measures tool for SSc patients, the Scleroderma Health Assessment Questionnaire (SHAQ), will be used to assess the participant qualify of life. Details are attached in the Appendix. The participant quality of life will be scored, and a disability index calculated for each questionnaire completed by the patient at Screening and each in-clinic visit. The absolute change in participant quality of life from baseline to the end of each dosing period will be calculated similar to frequency data as before.
The SHAQ includes a Raynaud's VAS, which will be reported at screening and each in-clinic visit. The absolute change in Raynaud-VAS, assessed by the participants response to the SHAQ question ‘In the past 7 days, how much have your Raynaud's interfered with your daily activities?’ at baseline and the end of each dosing period will be calculated similar to frequency data as before.
The SHAQ is used to calculate a Disability Index to assess the participant qualify of life. The eight categories assessed by the Disability Index are 1) dressing and grooming, 2) arising, 3) eating, 4) walking, 5) hygiene, 6) reach, 7) grip, and 8) common daily activities. For each of these categories, patients report the amount of difficulty they have in performing two or three specific activities.
There are four possible responses for the Disability Index questions: • Without any difficulty=0 • With some difficulty=1 • With much difficulty=2 • Unable to do=3. • The highest score reported by the patient for any component question of the eight categories determines the score for that category. • If a component question is left blank or the response is too ambiguous to assign a score, then the score for that category is determined by the remaining completed question(s). • If all component questions are blank or if more than one answer is given, then follow up with the respondent is required. • If the respondent's mark is between the response columns, then move it to the closest one. If it's directly between the two, move it to the higher one.
Each of the disability items on the SHAQ has a companion aids/devices variable that is used to record what type(s) of assistance, if any, the participant uses for his/her usual activities. These variables (see below) are coded as follows: • 0=No assistance is needed. • 1=A special device is used by the patient in his/her usual activities. • 2=The patient usually needs help from another person. • 3=The patient usually needs BOTH a special device AND help from another person.
The scoring variables and scoring rules permit the computation of two disability indices, the Standard Disability Index and the Alternative Disability Index.
This question results in a new set of category scores that are computed by adjusting the score for each category, if necessary, based on the patient's use of an aid or device or assistance for that category. If either devices and/or help from another person are checked for a category, the score is set to “2”, unless the score is already “3” (i.e., scores of “0” or “1” are increased to “2”). For example, if the highest score for the dressing category is “1”, and the patient says they use a device for dressing, the computed category score would be “2”. The sum of the computed categories scores is then calculated and divided by the number of categories answered. This gives a score in the 0 to 3 range.
The aid and device variables are not used to calculate the alternative disability index; it is calculated by adding the scores for each of the categories and dividing by the number of categories answered. This gives a score in the 0 to 3 range.
The standard, validated, patient reported outcome measures tool for SSc patients, the SHAQ, was collected at the time points specified in the study schedules (FIG. 2 and FIGS. 4A and 4B) to assess the participant's quality of life. The SHAQ included a Raynaud's VAS that will also be reported separately.

[1] = cilnidipine 10 mg and/or tadalafil 5 mg as labelled
[2] = cilnidipine 20 mg, plus tadalafil 5 mg where labelled

COCCOC(=O)C1=C(C)NC(C)=C(C(=O)OC/C=C/c2ccccc2)C1c1cccc([N+](=O)[O-])c1 (stereo not shown) [Cilnidipine, cilnidipine]
SHAQ Visual Analogue Scale - Intestinal Problems: Change from Baseline (Day 12), Median [1]: −1.550 | SHAQ Visual Analogue Scale - Intestinal Problems: In-Clinic Visit (Day 12), Mean [1]: 1.100 | SHAQ Visual Analogue Scale - Intestinal Problems: In-Clinic Visit (Day 12), Median [1]: 0.300 | SHAQ Visual Analogue Scale - Intestinal Problems: Percent Change from Baseline (Day 12), Mean [1]: −77.37% | SHAQ Visual Analogue Scale - Intestinal Problems: Percent Change from Baseline (Day 12), Median [1]: −88.00% | SHAQ Visual Analogue Scale - Overall Disease Severity: Baseline, Mean [1]: 2.725 | SHAQ Visual Analogue Scale - Overall Disease Severity: Baseline, Median [1]: 1.900 | SHAQ Visual Analogue Scale - Overall Disease Severity: Change from Baseline (Day 12), Mean [1]: −0.900 | SHAQ Visual Analogue Scale - Overall Disease Severity: Change from Baseline (Day 12), Median [1]: −0.950 | SHAQ Visual Analogue Scale - Overall Disease Severity: In-Clinic Visit (Day 12), Mean [1]: 1.825 | SHAQ Visual Analogue Scale - Overall Disease Severity: In-Clinic Visit (Day 12), Median [1]: 1.050 | SHAQ Visual Analogue Scale - Overall Disease Severity: Percent Change from Baseline (Day 12), Mean [1]: −56.96% | SHAQ Visual Analogue Scale - Overall Disease Severity: Percent Change from Baseline (Day 12), Median [1]: −44.12% | SHAQ Visual Analogue Scale - Raynaud's: Baseline, Mean [1]: 1.600 | SHAQ Visual Analogue Scale - Raynaud's: Baseline, Median [1]: 1.000 | SHAQ Visual Analogue Scale - Raynaud's: Change from Baseline (Day 12), Mean [1]: 0.325 | SHAQ Visual Analogue Scale - Raynaud's: Change from Baseline (Day 12), Median [1]: 0.350 | SHAQ Visual Analogue Scale - Raynaud's: In-Clinic Visit (Day 12), Mean [1]: 1.925 | SHAQ Visual Analogue Scale - Raynaud's: In-Clinic Visit (Day 12), Median [1]: 1.700 | SHAQ Visual Analogue Scale - Raynaud's: Percent Change from Baseline (Day 12), Mean [1]: 11.36% | SHAQ Visual Analogue Scale - Raynaud's: Percent Change from Baseline (Day 12), Median [1]: −2.27% | SHAQ Visual Analogue Scale - Breathing Problems: Baseline, Mean [2]: 1.325 | SHAQ Visual Analogue Scale - Breathing Problems: Baseline, Median [2]: 1.550 | SHAQ Visual Analogue Scale - Breathing Problems: Change from Baseline (Day 12), Mean [2]: −0.475 | SHAQ Visual Analogue Scale - Breathing Problems: Change from Baseline (Day 12), Median [2]: −0.250 | SHAQ Visual Analogue Scale - Breathing Problems: In-Clinic Visit (Day 12), Mean [2]: 0.850 | SHAQ Visual Analogue Scale - Breathing Problems: In-Clinic Visit (Day 12), Median [2]: 0.450 | SHAQ Visual Analogue Scale - Breathing Problems: Percent Change from Baseline (Day 12), Mean [2]: 3.73% | SHAQ Visual Analogue Scale - Breathing Problems: Percent Change from Baseline (Day 12), Median [2]: −17.54% | SHAQ Visual Analogue Scale - Finger Ulcers: Baseline, Mean [2]: 1.800 | SHAQ Visual Analogue Scale - Finger Ulcers: Baseline, Median [2]: 0.300 | SHAQ Visual Analogue Scale - Finger Ulcers: Change from Baseline (Day 12), Mean [2]: −0.933 | SHAQ Visual Analogue Scale - Finger Ulcers: Change from Baseline (Day 12), Median [2]: 0.000 | SHAQ Visual Analogue Scale - Finger Ulcers: In-Clinic Visit (Day 12), Mean [2]: 0.650 | SHAQ Visual Analogue Scale - Finger Ulcers: In-Clinic Visit (Day 12), Median [2]: 0.350 | SHAQ Visual Analogue Scale - Finger Ulcers: Percent Change from Baseline (Day 12), Mean [2]: 35.29% | SHAQ Visual Analogue Scale - Finger Ulcers: Percent Change from Baseline (Day 12), Median [2]: 35.29% | SHAQ Visual Analogue Scale - Intestinal Problems: Baseline, Mean [2]: 0.700 | SHAQ Visual Analogue Scale - Intestinal Problems: Baseline, Median [2]: 0.650 | SHAQ Visual Analogue Scale - Intestinal Problems: Change from Baseline (Day 12), Mean [2]: 0.150 | SHAQ Visual Analogue Scale - Intestinal Problems: Change from Baseline (Day 12), Median [2]: 0.150 | SHAQ Visual Analogue Scale - Intestinal Problems: In-Clinic Visit (Day 12), Mean [2]: 0.850 | SHAQ Visual Analogue Scale - Intestinal Problems: In-Clinic Visit (Day 12), Median [2]: 0.650 | SHAQ Visual Analogue Scale - Intestinal Problems: Percent Change from Baseline (Day 12), Mean [2]: −10.00% | SHAQ Visual Analogue Scale - Intestinal Problems: Percent Change from Baseline (Day 12), Median [2]: 30.00% | SHAQ Visual Analogue Scale - Overall Disease Severity: Baseline, Mean [2]: 3.125 | SHAQ Visual Analogue Scale - Overall Disease Severity: Baseline, Median [2]: 2.950 | SHAQ Visual Analogue Scale - Overall Disease Severity: Change from Baseline (Day 12), Mean [2]: −2.000 | SHAQ Visual Analogue Scale - Overall Disease Severity: Change from Baseline (Day 12), Median [2]: −1.700 | SHAQ Visual Analogue Scale - Overall Disease Severity: In-Clinic Visit (Day 12), Mean [2]: 1.125 | SHAQ Visual Analogue Scale - Overall Disease Severity: In-Clinic Visit (Day 12), Median [2]: 1.300 | SHAQ Visual Analogue Scale - Overall Disease Severity: Percent Change from Baseline (Day 12), Mean [2]: −64.20% | SHAQ Visual Analogue Scale - Overall Disease Severity: Percent Change from Baseline (Day 12), Median [2]: −64.44% | SHAQ Visual Analogue Scale - Raynaud's: Baseline, Mean [2]: 3.075 | SHAQ Visual Analogue Scale - Raynaud's: Baseline, Median [2]: 3.000 | SHAQ Visual Analogue Scale - Raynaud's: Change from Baseline (Day 12), Mean [2]: −1.200 | SHAQ Visual Analogue Scale - Raynaud's: Change from Baseline (Day 12), Median [2]: −1.050 | SHAQ Visual Analogue Scale - Raynaud's: In-Clinic Visit (Day 12), Mean [2]: 1.875 | SHAQ Visual Analogue Scale - Raynaud's: In-Clinic Visit (Day 12), Median [2]: 1.250 | SHAQ Visual Analogue Scale - Raynaud's: Percent Change from Baseline (Day 12), Mean [2]: −41.11% | SHAQ Visual Analogue Scale - Raynaud's: Percent Change from Baseline (Day 12), Median [2]: −38.67%

Source: patent US20240358693A1, “METHODS OF TREATING PAIN” (Aisa Pharma, Inc., priority 2023, published 2024)
